One assay addresses T1, chymotrypsin (Bos taurus, UniProt P00766).
T1 construct: purchased Sigma (Schnelldorf, Germany)
As to the kind of experiment: Inhibition of amidolytic activity of chymotrypsin (chromogenic substrate). It is filed as biochemical. Conditions: substrate Suc-Phe-pNA 8 mM, tris buffer pH 9.0, chymotrypsin 0.4 units mL−1, 3 min pre-incubation at 37 °C, 20 min incubation, absorbance 405 nm, average of triplicate. As for the experimental part:
(§1) Determination of amidolytic activity was performed as described by Okada.[22] The synthetic amidolytic (chromogenic) substrates (Bzl-L-Arg-pNA.HCl for trypsin and Suc-Phe-pNA for chymotrypsin) are selected to give appropriate specificity for inhibition of the serine proteases. A chromophore (para-nitroaniline = pNA, yellow color) is cleaved from the C-terminus amide bond by the protease, and the absorbance can be detected.
(§2) A detailed description of the method is given below. The buffer and the enzyme solution contained: • […] buffer—0.5 mL (pH 7.5), enzyme: trypsin (0.4 units mL^−1), synthetic substrate: Bzl-L-Arg-pNA.HCl (0.2 mL, 8 mM); • tris buffer—0.6 mL (pH 9.0), enzyme: chymotrypsin (0.4 units mL^−1), synthetic substrate: Suc-Phe-pNA (0.2 mL, 8 mM).
(§3) The buffer and 0.1 mL of enzyme solution were added to 0.2 mL of the examined compound dissolved in 0.15 M NaCl (1–11) (as control 0.15 M NaCl). The mixture was incubated for 3 min at 37 °C, then the synthetic substrate was added. After 20 min of incubation, the reaction was stopped by adding 0.1 mL of 50% acetic acid, and the absorbance of the released p-nitroaniline was measured at 405 nm (Spekol 1300, Analytic Jena). Every value represents the average of triplicate determination. The IC50 value was taken as the concentration of the inhibitor which decreased the absorbance at 405 nm by 50% compared with the absorbance measured under the same conditions without the inhibitor.

The next assay deals with T2, 20Si (immunoproteasome) (Homo sapiens, UniProt P28062+P28065+P40306).
T2 construct: purchased www.vivabioscience.com (Basepoint Business Centre, United Kingdom)
As to the kind of experiment: SPRI measurement of ability of immobilized potential receptor to bind 20Si. Conditions: for Selectivity of binding 20Si vs 20Sc, in words (text summary of Table 4): 20Si or 20Sc 2.8 μg mL−1; for Ability to bind 20Si: receptor at 1, 10, 100 μg mL−1, 20Si 2.8 μg mL−1, SPRI signal increase of less than 20% = lack of ability to bind. It is filed as binding. The method, then: (§4) Chips were immersed in an ethanolic solution 1-octadecanothiol (ODM) ([…]) for 24 h at room temperature. Then the biosensors have been repeatedly washed in ethanol and water, and dried under a stream of argon. Chips prepared in this way can be stored and used for subsequent measurements. […] After that time, the process of immobilization of the inhibitor by hydrophobic interaction was completed. A biosensor prepared in this way should be used directly for analysis. A diagram of the chip appears in Fig. 1a.
(§5) The chip was immersed in a vessel with an ethanolic solution of cysteamine for 2 h at room temperature. After 2 h, the chip was rinsed with ethanol and water and dried under a stream of argon. A chip prepared in this manner can be stored and used for subsequent measurements. Each of the synthesised inhibitor solutions was activated with NHS (250 mM) and EDC (250 mM) in the ratio 1: 1 and carbonate buffer (pH 8.5) as a suitable reaction medium. Next, 3 μL of this solution was placed on each of nine active sites on the amine-modified surface. The closed vessel with the biosensor and under appropriate conditions of humidity was incubated at 37 °C for 1 h. Next, the biosensor was rinsed with water and dried under a stream of argon. A biosensor prepared in this way should be used directly for testing and analysis.
(§6) SPRI measurements for the protein biosensor array were performed as described elsewhere.[8],[11] Briefly, the measurements were performed at a fixed angle of incident light and the reflectivity was simultaneously measured cross an entire chip surface. The contrast values obtained for all pixels across a particular sample single spot were integrated. The signal was measured twice on the basis of registered images, after immobilization of the inhibitor and after immunoproteasome interaction. The SPRI signal, which is proportional to the coupled protein, was obtained by subtraction between the signals before and after interaction with protein for each spot separately.
(§7) A background correction was applied i.e. some of the sites on the biosensor covered with PBS buffer were used as a control. Non-specific binding was monitored by measuring the SPRI signal at a site on the chip without the receptor (ligand). Minimization of non-specific binding was achieved by preparing samples in PBS buffer (NaCl an KCl concentration ~200 mM) at pH 7.4 near the isoelectric point of the protein.
(§8) A crucial factor for the application of newly synthesised potential receptors is their selectivity. Selectivity for 20Si or 20Sc was checked using SPRI measurements. […] Measurements were performed as described above at three different concentrations of potential receptors (1, 10, 100 μg mL^−1) at a fixed concentration of 20Si (2.8 μg mL^−1) or 20Sc (2.8 μg mL^−1). An increase in the SPRI signal of less than 20% was considered to imply lack of ability to bind 20Si or 20Sc.

Assay [1] concerns the target 20Sc (constitutive proteasome; commercially available proteasome) (Homo sapiens, UniProt P28072+P28074+Q99436). Description: SPRI measurement of ability of immobilized potential receptor to bind 20Sc. It is filed as binding, mammalian. The settings on record: receptor at 1, 10, 100 μg mL−1, 20Sc 2.8 μg mL−1, SPRI signal increase of less than 20% = lack of ability to bind. The method, then:
as §4, §5, §6, §7, §8

Another assay deals with T3, 20Si (Homo sapiens, UniProt P28062+P28065+P40306).
T3 construct: purchased www.vivabioscience.com (Basepoint Business Centre, United Kingdom)
As to the kind of experiment: Specificity of SPRI biosensor: 20Si determination in the presence of an interferent. It is filed as binding. Conditions: added 20Si 2.80 μg mL−1; for Found 20Si: tripeptide as receptor via cysteamine linker, 20Sc 2.8 μg mL−1, ratio 20Si vs. 20Sc 1:1, 95% confidence limits, 12 measurements; for Recovery: tripeptide as receptor, 20Sc 2.8 μg mL−1, ratio 1:1. The method, then: as §6, §7
The specificity of the developed biosensor, especially against 20Sc, is crucial factor for the device’s application. Specificity was investigated at different ratios of 20Si and 20Sc and various 20Si concentrations. Additionally, tolerance of human albumin was checked.
This investigation is crucial for the determination of 20Si in the presence of 20Sc. Series of model solutions containing both 20Si (2.8 μg mL^−1) and 20Sc (2.8 μg mL^−1) were determined using four developed biosensors specific for 20Si. The confidence limits of the results are a measure of measurement precision.

A further assay concerns trypsin. As to the kind of experiment: Inhibition of amidolytic activity of trypsin (chromogenic substrate). It is filed as biochemical. Conditions: substrate Bzl-L-Arg-pNA.HCl 8 mM, borane buffer pH 7.5, trypsin 0.4 units mL−1, 3 min pre-incubation at 37 °C, 20 min incubation, absorbance 405 nm, average of triplicate. As for the experimental part: as §1, §2, §3

Each structure is given as a SMILES string. Where a SMILES comes first, the peptide text is derived from it. [ ]: non-standard residue; d: D form. hPhe = N[C@@H](CCc1ccccc1)C(=O)O; Nle = CCCC[C@H](N)C(=O)O

Consider `CC(C)C[C@H](NC(=O)[C@@H](N)Cc1ccccc1)C(=O)N[C@@H](Cc1ccccc1)C(=O)O` [compound 1, H-Phe-Leu-Phe-OH] (H-Phe-Leu-Phe-OH), for which inhibition at chymotrypsin was half-maximal at 178 ± 14 µM (IC50). For the same molecule, on 20Si (immunoproteasome), the “Selectivity of binding 20Si vs 20Sc, in words (text summary of Table 4)” value (shortened to “Selectivity of binding 20Si vs 20Sc”) was “able to bind both 20Si and 20Sc”; the “Ability to bind 20Si” value is recorded as “+ (+, bound)”. Moreover, in assay [1], the “Ability to bind 20Sc” value is given as “+ (+, bound)”.

Consider `N[C@@H](Cc1ccccc1)C(=O)N[C@@H](Cc1ccccc1)C(=O)N[C@@H](Cc1ccccc1)C(=O)O` [compound 2, H-Phe-Phe–Phe-OH] (H-Phe-Phe-Phe-OH), for which, on chymotrypsin, the midpoint of inhibition, the IC50, lay at 185 ± 14 µM. At 20Si (immunoproteasome), the “Selectivity of binding 20Si vs 20Sc” value is “able to bind both 20Si and 20Sc”; the “Ability to bind 20Si” value is reported as “+ (+, bound)”. Further, in assay [1], the “Ability to bind 20Sc” value is “+ (+, bound)”.

For `C[C@H](NC(=O)[C@@H](N)Cc1ccccc1)C(=O)N[C@@H](Cc1ccccc1)C(=O)O` [compound 3, H-Phe-Ala-Phe-OH] (H-Phe-Ala-Phe-OH), half-maximal inhibition against chymotrypsin (IC50) required 187 ± 14 µM. For the same molecule, at 20Si (immunoproteasome), the “Selectivity of binding 20Si vs 20Sc” value was “able to bind both 20Si and 20Sc”; the “Ability to bind 20Si” value is “+ (+, bound)”. Besides, the “Ability to bind 20Sc” value in assay [1] is recorded as “+ (+, bound)”.

For `CC(C)C[C@H](N)C(=O)N[C@@H](Cc1ccccc1)C(=O)N[C@@H](Cc1ccccc1)C(=O)O` [compound 4, H-Leu-Phe–Phe-OH] (H-Leu-Phe-Phe-OH), the IC50 (in general, the concentration that inhibits the measured activity by half) against chymotrypsin was 184 ± 14 µM. At 20Si (immunoproteasome), the “Selectivity of binding 20Si vs 20Sc” value was “does not capture any form of 20S” and the “Ability to bind 20Si” value is “– (−, lack of bonding)”. For the same molecule, the “Ability to bind 20Sc” value in assay [1] is recorded as “– (−, lack of bonding)”.

For `CC(C)C[C@H](NC(=O)[C@H](CC(C)C)NC(=O)[C@@H](N)Cc1ccccc1)C(=O)O` [compound 5, H-Phe-Leu–Leu-OH] (H-Phe-Leu-Leu-OH), the IC50 at chymotrypsin was determined as 184 ± 14 µM. Moreover, on 20Si (immunoproteasome), the “Selectivity of binding 20Si vs 20Sc” value is given as “selective inhibition of 20Si” and the “Ability to bind 20Si” value is recorded as “+ (+, bound)”. Also, in assay [1], the “Ability to bind 20Sc” value is recorded as “– (−, lack of bonding)”. Besides, on 20Si, the “Found 20Si” value came out at 2.97 ± 0.40 µg/mL and the Recovery turned out to be 106%.

For the molecule `CC(C)C[C@H](NC(=O)[C@H](Cc1ccccc1)NC(=O)[C@@H](N)Cc1ccccc1)C(=O)O` [compound 6, H-Phe-Phe-Leu-OH] (H-Phe-Phe-Leu-OH), the IC50 at chymotrypsin amounted to 174 ± 13 µM. Besides, on 20Si (immunoproteasome), the “Selectivity of binding 20Si vs 20Sc” value is “selectivity to 20Sc” and the “Ability to bind 20Si” value is listed as “– (−, lack of bonding)”. Besides, in assay [1], the “Ability to bind 20Sc” value is “+ (+, bound)”.

In the case of `N[C@@H](Cc1ccccc1)C(=O)N[C@@H](CCc1ccccc1)C(=O)N[C@@H](Cc1ccccc1)C(=O)O` [compound 7, H-Phe-hPhe-Phe-OH] (H-Phe-[hPhe]-Phe-OH), the IC50 was 44 ± 3 µM in the assay on trypsin and 185 ± 14 µM at chymotrypsin. On 20Si (immunoproteasome), the “Selectivity of binding 20Si vs 20Sc” value was “able to bind both 20Si and 20Sc”. Also, the “Ability to bind 20Si” value on 20Si (immunoproteasome) is recorded as “+ (+, bound)”. Besides, the “Ability to bind 20Sc” value in assay [1] was “+ (+, bound)”.

Consider `CC(C)C[C@H](NC(=O)[C@@H](N)CC(C)C)C(=O)N[C@@H](Cc1ccccc1)C(=O)O` [compound 8, H-Leu-Leu-Phe-OH] (H-Leu-Leu-Phe-OH), for which, in the assay on trypsin, the IC50 turned out to be 79 ± 6 µM. Moreover, half-maximal inhibition at chymotrypsin (IC50) required 152 ± 12 µM. For the same molecule, on 20Si (immunoproteasome), the “Selectivity of binding 20Si vs 20Sc” value was “selective inhibition of 20Si” and the “Ability to bind 20Si” value is given as “+ (+, bound)”. For the same molecule, in assay [1], the “Ability to bind 20Sc” value is reported as “– (−, lack of bonding)”. In addition, on 20Si, the “Found 20Si” value was determined as 2.88 ± 0.44 µg/mL and the Recovery came out at 103%.

On chymotrypsin, `N[C@@H](Cc1ccccc1)C(=O)N[C@@H](Cc1ccccc1)C(=O)O` [compound 9, H-Phe-Phe-OH] (H-Phe-Phe-OH) displayed an IC50 of 141 ± 11 µM. In addition, at 20Si (immunoproteasome), the “Selectivity of binding 20Si vs 20Sc” value is “selectivity to 20Sc” and the “Ability to bind 20Si” value is listed as “– (−, lack of bonding)”. Moreover, the “Ability to bind 20Sc” value in assay [1] is “+ (+, bound)”.

Take `CC(C)C[C@H](NC(=O)[C@H](Cc1ccccc1)NC(=O)[C@@H](N)CC(C)C)C(=O)O` [compound 10, H-Leu-Phe-Leu-OH] (H-Leu-Phe-Leu-OH): the IC50 in the assay on trypsin worked out at 12000 ± 960 µM. In addition, inhibition at chymotrypsin was half-maximal at 1830 ± 150 µM (IC50). At 20Si (immunoproteasome), the “Selectivity of binding 20Si vs 20Sc” value is listed as “selective inhibition of 20Si” and the “Ability to bind 20Si” value is “+ (+, bound)”. In assay [1], the “Ability to bind 20Sc” value was “– (−, lack of bonding)”. Also, at 20Si, the “Found 20Si” value is 2.89 ± 0.60 µg/mL and the Recovery is given as 103%.

In the case of `CCCC[C@H](NC(=O)[C@H](CC(C)C)NC(=O)[C@@H](N)Cc1ccccc1)C(=O)O` [compound 11, H-Phe-Leu-nLeu-OH] (H-Phe-Leu-[Nle]-OH), inhibition in the assay with trypsin was half-maximal at 18000 ± 1440 µM (IC50). The IC50 at chymotrypsin amounted to 1920 ± 150 µM. In addition, at 20Si (immunoproteasome), the “Selectivity of binding 20Si vs 20Sc” value is reported as “selective inhibition of 20Si” and the “Ability to bind 20Si” value is listed as “+ (+, bound)”. Moreover, the “Ability to bind 20Sc” value in assay [1] is recorded as “– (−, lack of bonding)”. Besides, at 20Si, the “Found 20Si” value came to 2.99 ± 0.47 µg/mL and the Recovery was 107%.

These data come from PMC5352758, “Methods for 20S Immunoproteasome and 20S Constitutive Proteasome Determination Based on SPRI Biosensors” (Cellular and Molecular Bioengineering, 2017).
